The target of one experiment is T1, human LPA3 receptor (Homo sapiens, UniProt Q9UBY5).
T1 construct: expressed in transfected cells; host or cells: CHO cells (Chinese hamster ovary) with the LPA1 receptor knocked down
T1 sequence (Q9UBY5 1-353): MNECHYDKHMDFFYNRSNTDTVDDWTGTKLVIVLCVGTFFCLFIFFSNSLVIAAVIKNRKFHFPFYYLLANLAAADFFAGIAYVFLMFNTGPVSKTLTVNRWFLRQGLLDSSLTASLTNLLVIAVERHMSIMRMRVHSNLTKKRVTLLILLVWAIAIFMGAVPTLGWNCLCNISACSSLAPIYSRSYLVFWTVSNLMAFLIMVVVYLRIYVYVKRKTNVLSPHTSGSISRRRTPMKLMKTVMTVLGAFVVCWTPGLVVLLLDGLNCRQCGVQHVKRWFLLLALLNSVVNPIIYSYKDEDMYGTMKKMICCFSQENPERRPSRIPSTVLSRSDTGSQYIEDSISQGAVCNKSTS
Kind of experiment: LPA3 agonist activity measurement (Method A): intracellular Ca2+ in RH7777 cells stably expressing human LPA3 receptor. In kind it is cell-based. The conditions noted are these: RH7777 cells expressing human LPA3, Ca2+ fluorescence. The procedure:
(Method A) Using RH7777 cells derived from rat hepatocellular carcinoma as a host, each cell line (Multispan, Inc., Cat No. C1048-6, C1050-6, and C1053-6) stably expressing a human LPA3 receptor was subjected to an experiment. The cells cultured until reaching subconfluence were detached, and suspended in a medium (DMEM containing 10% FBS, 1% penicillin/streptomycin, 30 μg/mL puromycin) so as to be 4×10^5 cells/mL. The cells were seeded in a 96 well optical bottom plate (Asahi Techno Glass, MT4940-010) at 100 μL/well, and cultured under conditions of 5% CO2 and 37° C. for 1 day.
On the day of measurement, the medium was removed, and a medium containing 0.2% FBS was added at 100 μL/well, and cultured for 4 to 6 hours. Thereafter, the medium was removed, and an assay buffer (Hank's Balanced Salt Solution containing 0.02 mol/L HEPES, 2.5 mmol/L probenecid, 0.1% BSA, 5 μmol/L Fluo-4, Quenching Buffer, Pluronic F-127) was added at 100 μL/well, and the cells were incubated with 5% CO2 at 37° C. for about 1 hour. The plate was set in a fluorescent drug screening system (Hamamatsu Photonics K.K.), and after 30 seconds from the start of measurement, 25 μL of a cell-added solution containing only a test substance or dimethyl sulfoxide (hereinafter, it is abbreviated as DMSO.) was added thereto. After 3 minutes, 25 μL of a ligand was further added thereto, and then measurement was performed for 4 minutes. A fluorescence wavelength of 540 nm at an excitation wavelength of 480 nm was measured, and intracellular Ca^2+ concentration was indicated by fluorescence intensity change.
Agonist action of the test substance was calculated as a ratio increase degree after addition of the test substance when a ratio increase value indicated by cells to which a cell-added solution containing only DMSO was added at the time of ligand addition was set to 100%. Further, EC50 value was calculated as a 50% action concentration using Microsoft Excel, from an activity (%) at concentrations before and after agonist activity exceeds 50%.
In turn, `O=C(O)c1c(CNC2CCC2)c2ccccc2n1CC1CC1(F)F` (centres unmarked) [Example 1(3), 3-[(Cyclobutylamino)methyl]-1-[(2,2-difluorocyclopropyl)methyl]-1H-indole-2-carboxylic acid] yielded an EC50 of 500 nM.

As for `CCn1c(C(=O)O)c(CNC2CCC2)c2ccccc21` [Example 1(4), 3-[(Cyclobutylamino)methyl]-1-ethyl-1H-indole-2-carboxylic acid], the 50% effective concentration (EC50) came to 600 nM.

As to `Cc1ccc(Cn2c(C(=O)O)c(CNC3CC3)c3ccccc32)cc1` [Example 2(18), 3-[(Cyclopropylamino)methyl]-1-(4-methylbenzyl)-1H-indole-2-carboxylic acid], it took 1000 nM to reach a half-maximal effect (EC50).

For `Cc1ccc(Cn2c(Br)c(C)c(CNC3CCC3)c2C(=O)O)cc1` [Example 2(34), 5-Bromo-3-[(cyclobutylamino)methyl]-4-methyl-1-(4-methylbenzyl)-1H-pyrrole-2-carboxylic acid], the EC50 is 40 nM.

With `Cc1ccc(Cn2c(C(=O)O)c(CNC3CCC3)c3ccccc32)cc1` [Example 2, 3-[(Cyclobutylamino)methyl]-1-(4-methylbenzyl)-1H-indole-2-carboxylic acid], a half-maximal effect (EC50) was put at 60 nM. Against the preceding compound, the EC50 is about 1.5-fold higher.

As for `Cc1ccc(Cn2c(C(=O)O)c(C(C)NC3CCC3)c3ccccc32)cc1` (centres unmarked) [Example 5, 3-[1-(Cyclobutylamino)ethyl]-1-(4-methylbenzyl)-1H-indole-2-carboxylic acid], the 50% effective concentration (EC50) was determined as 100 nM. Against the preceding compound, the EC50 is about 1.7-fold higher.

Take `Cc1ccc(Cn2c(C)c(-c3cccc(F)c3)c(CNC3CCC3)c2C(=O)O)cc1` [Example 6(2), 3-[(Cyclobutylamino)methyl]-4-(3-fluorophenyl)-5-methyl-1-(4-methylbenzyl)-1H-pyrrole-2-carboxylic acid]: the EC50 came out at 900 nM.

The compound `C=Cc1c(CNC2CCC2)c(C(=O)O)n(Cc2ccc(C)cc2)c1C` [Example 6(7), 3-[(Cyclobutylamino)methyl]-5-methyl-1-(4-methylbenzyl)-4-vinyl-1H-pyrrole-2-carboxylic acid] gave an EC50 of 1000 nM.

Turning to `Cc1ccc(Cn2c3c(c(CNC4CCC4)c2C(=O)O)CCCC3)cc1` [Example 7, 3-[(Cyclobutylamino)methyl]-1-(4-methylbenzyl)-4,5,6,7-tetrahydro-1H-indole-2-carboxylic acid], the EC50 was 100 nM. Compared with the last compound, the EC50 is about 10-fold lower.

In a further experiment the target is T1, human LPA3 receptor. Kind of experiment: LPA3 agonist activity measurement (Method B): intracellular Ca2+ in LPA1-knockdown CHO cells stably expressing human LPA3 receptor. In kind it is cell-based. The settings on record: LPA1-knockdown CHO cells expressing human LPA3, Ca2+ fluorescence. The source says: (Method B) A cell line stably expressing a human LPA3 receptor using a cell obtained by knocking down an LPA1 receptor of CHO cells of Chinese hamster ovary as a host was subjected to an experiment. The cryopreserved cells were thawed and suspended in loading buffer (Hank's Balanced Salt Solution containing 0.02 mol/L HEPES, 2.5 mmol/L probenecid, 0.1% BSA, 5 μmol/L Fluo-4, Quenching Buffer, Pluronic F-127) so as to be 1×10^5 cells/mL. The plate was allowed to stand under conditions of 5% CO2 and 37° C. for 1 hour, then the buffer was replaced with an assay buffer (Hank's Balanced Salt Solution containing 0.02 mol/L HEPES, 2.5 mmol/L probenecid, 0.1% BSA), and the cells were seeded in a 384 well optical bottom plate (384 Well microplate, low volume, Corning, 3540) at 10 μL/well.
A plate was set in a fluorescent drug screening system (Hamamatsu Photonics K.K.), and after 15 seconds from the start of the measurement, 10 μL of a positive control, the test substance or the cell-added solution containing only DMSO was added thereto, and the measurement was performed for 1 minute. A fluorescence wavelength of 540 nm at an excitation wavelength of 480 nm was measured, and intracellular […] concentration was indicated by fluorescence intensity change.
Agonist action of the test substance was calculated as a ratio increase degree after addition of the test substance when a ratio increase value indicated by the positive control or the cell-added solution containing was added was set to 100%. Further, EC50 value was calculated as a 50% action concentration using Microsoft Excel, from an activity (%) at concentrations before and after agonist activity exceeds 50%.
Regarding `O=C(O)c1c(CNC2CCC2)c2ccccc2n1CC1CC1(F)F` (centres unmarked) [Example 1(3), 3-[(Cyclobutylamino)methyl]-1-[(2,2-difluorocyclopropyl)methyl]-1H-indole-2-carboxylic acid], the response was half-maximal at 200 nM (EC50).

Compound `CCn1c(C(=O)O)c(CNC2CCC2)c2ccccc21` [Example 1(4), 3-[(Cyclobutylamino)methyl]-1-ethyl-1H-indole-2-carboxylic acid] registered an EC50 of 600 nM.

With `O=C(O)c1c(CNC2CCC2)c2ccccc2n1Cc1ccccc1Cl` [Example 2(6), 1-(2-Chlorobenzyl)-3-[(cyclobutylamino)methyl]-1H-indole-2-carboxylic acid], the EC50 amounted to 50 nM.

In the case of `O=C(O)c1c(CNC2CCC2)c2ccccc2n1Cc1cccc(C2CC2)c1` [Example 2(41), 3-[(Cyclobutylamino)methyl]-1-(3-cyclopropylbenzyl)-1H-indole-2-carboxylic acid], the concentration for a half-maximal effect (EC50) turned out to be 40 nM.

Turning to `Cc1ccc(Cn2c(C(=O)O)c(CNC3CCC3C)c3ccccc32)cc1` (centres unmarked) [Example 2(46)], the concentration for a half-maximal effect (EC50) was 100 nM.

Turning to `Cc1ccc(Cn2c(C(=O)O)c(CNC3CCC3)c3cccnc32)cc1` [Example 2(49), 3-[(Cyclobutylamino)methyl]-1-(4-methylbenzyl)-1H-pyrrolo[2,3-b]pyridine-2-carboxylic acid], the EC50 came to 100 nM.

`O=C(O)c1c(CNC2CCC2)c2ccccc2n1Cc1ccccc1OC(F)F` [Example 2(53), 3-[(Cyclobutylamino)methyl]-1-[2-(difluoromethoxy)benzyl]-1H-indole-2-carboxylic acid] returned an EC50 of 100 nM.

The compound `O=C(O)c1c(CNC2CCCC2)c2ccccc2n1Cc1ccccc1Cl` [Example 2(70), 1-(2-Chlorobenzyl)-3-[(cyclopentylamino)methyl]-1H-indole-2-carboxylic acid] showed a concentration giving a half-maximal response (EC50) of 200 nM.

For the compound `Cc1ccc(Cn2c(C(=O)O)c(CNC3CSC3)c3ccccc32)cc1` [Example 2(71), 1-(4-Methylbenzyl)-3-[(3-thiethanylamino)methyl]-1H-indole-2-carboxylic acid], it took 60 nM to reach a half-maximal effect (EC50). Against the preceding compound, the EC50 is about 3.3-fold lower.

With `O=C(O)c1c(CNC2CC2)c2ccccc2n1Cc1ccccc1Cl` [Example 2(72), 1-(2-Chlorobenzyl)-3-[(cyclopropylamino)methyl]-1H-indole-2-carboxylic acid], the concentration giving a half-maximal response (EC50) was found to be 100 nM.

Compound `O=C(O)c1c(CNC2CCC2)c2ccccc2n1Cc1cccs1` [Example 2(74), 3-[(Cyclobutylamino)methyl]-1-(2-thienylmethyl)-1H-indole-2-carboxylic acid] returned an EC50 of 30 nM.

`CSc1ccccc1Cn1c(C(=O)O)c(CNC2CCC2)c2ccccc21` [Example 2(75), 3-[(Cyclobutylamino)methyl]-1-[2-(methylthio)benzyl]-1H-indole-2-carboxylic acid] came in with an EC50 of 60 nM.

Regarding `Cc1ccc(Cn2c(C(=O)O)c(CNC3CCC3)c3cccc(C#N)c32)cc1` [Example 9(1), 7-Cyano-3-[(cyclobutylamino)methyl]-1-(4-methylbenzyl)-1H-indole-2-carboxylic acid], it took 200 nM to reach a half-maximal effect (EC50). Compared with the last compound, the EC50 is about 3.3-fold higher.

The compound `Cc1ccc(Cn2c(C(=O)NS(C)(=O)=O)c(CNC3CCC3)c3ccccc32)cc1` [Example 19, 3-[(Cyclobutylamino)methyl]-1-(4-methylbenzyl)-N-(methylsulfonyl)-1H-indole-2-carboxamide] registered an EC50 of 60 nM.

As a reminder, the EC50 is the midpoint of the concentration-response curve.

For the origin of these results see US20230014137A1, “COMPOUND HAVING LYSOPHOSPHATIDIC ACID RECEPTOR AGONIST ACTIVITY AND PHARMACEUTICAL USE THEREOF” (ONO PHARMACEUTICAL CO., LTD., priority 2019, published 2023).
